From article PMC8187479, “Sugar phosphate activation of the stress sensor eIF2B” (Nature Communications, 2021)
Where a chain is given by its changes, count along the chain named. “Also recorded” adds a separate entry of the source.

How the values were obtained:
eIF2Bα = molecular target: T1, eIF2Bα (Homo sapiens, UniProt Q14232); test: Isothermal titration calorimetry, wild-type eIF2Bα; type: binding
T1 construct: made in house; host or cells: E. coli BL21(DE3)
T1 sequence (Q14232 1-305): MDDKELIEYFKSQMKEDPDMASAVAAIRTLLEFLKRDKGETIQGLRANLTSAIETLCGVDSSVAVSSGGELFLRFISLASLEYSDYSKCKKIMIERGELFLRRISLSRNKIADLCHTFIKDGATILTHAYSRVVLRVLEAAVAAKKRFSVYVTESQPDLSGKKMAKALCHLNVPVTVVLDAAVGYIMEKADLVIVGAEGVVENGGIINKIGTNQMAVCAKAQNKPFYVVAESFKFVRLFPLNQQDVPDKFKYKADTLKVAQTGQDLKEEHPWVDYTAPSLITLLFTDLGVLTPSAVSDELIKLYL
Protocol: (§1) Interactions between recombinant protein and sugar phosphates were conducted with a MicroCal PEAQ-ITC (Malvern Panalytical Inc.). Experiments were performed in 25 mM HEPES, 150 mM NaCl, pH 7.5 at 20 °C. The sugar phosphate concentration in the syringe was 1 mM or 1.5 mM, and ~3.5 μL aliquots were injected into cells containing 300 μL eIF2Bα or eIF2B(βδγε) at a concentration of 20–30 μM. The final titration curves were fitted using MicroCal ITC data analysis software, assuming a single binding site per monomer.

eIF2Bα^E198K = molecular target: T2, eIF2Bα^E198K (Homo sapiens, UniProt Q14232, E198K); test: Isothermal titration calorimetry, eIF2Bα E198K; type: binding; settings: ITC
T2 sequence (Q14232 1-305 E198K): T1 sequence (Q14232 1-305) with E198K
Protocol: Interactions between recombinant protein and sugar phosphates were conducted with a MicroCal PEAQ-ITC (Malvern Panalytical Inc.). Experiments were performed in 25 mM HEPES, 150 mM NaCl, pH 7.5 at 20 °C. […] The final titration curves were fitted using MicroCal ITC data analysis software, assuming a single binding site per monomer.

eIF2Bα^N208Y = molecular target: T3, eIF2Bα^N208Y (Homo sapiens, UniProt Q14232, N208Y); test: Isothermal titration calorimetry, eIF2Bα N208Y; type: binding; settings: ITC
T3 construct: made in house; host or cells: E. coli BL21(DE3)
T3 sequence (Q14232 1-305 N208Y): T1 sequence (Q14232 1-305) with N208Y
Protocol: as §1

[1] = molecular target: T4, recombinant eIF2B(βδγε) ± eIF2Bα2 (Homo sapiens, UniProt P49770+Q14232+Q9UI10); test: Size-exclusion chromatography of recombinant eIF2B(βδγε) with or without eIF2Bα; type: biochemical; settings: SEC, recombinant eIF2B(βδγε) + eIF2Bα2; 500 nM ISRIB, 200 μM F6P
T4 construct: made in house; host or cells: eIF2Bα: E. coli BL21(DE3)
T4 sequence (P49770 whole entry, one chain of several): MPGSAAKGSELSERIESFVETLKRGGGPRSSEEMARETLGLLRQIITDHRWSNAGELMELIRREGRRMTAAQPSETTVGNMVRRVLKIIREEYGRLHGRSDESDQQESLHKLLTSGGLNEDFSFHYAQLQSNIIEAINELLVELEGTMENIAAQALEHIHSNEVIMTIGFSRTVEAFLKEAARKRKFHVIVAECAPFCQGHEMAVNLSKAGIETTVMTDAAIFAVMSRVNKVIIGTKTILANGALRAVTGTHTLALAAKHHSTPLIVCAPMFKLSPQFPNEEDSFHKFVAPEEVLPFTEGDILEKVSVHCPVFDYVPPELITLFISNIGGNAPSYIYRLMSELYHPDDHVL
T4 sequence (Q9UI10 2-523, one chain of several): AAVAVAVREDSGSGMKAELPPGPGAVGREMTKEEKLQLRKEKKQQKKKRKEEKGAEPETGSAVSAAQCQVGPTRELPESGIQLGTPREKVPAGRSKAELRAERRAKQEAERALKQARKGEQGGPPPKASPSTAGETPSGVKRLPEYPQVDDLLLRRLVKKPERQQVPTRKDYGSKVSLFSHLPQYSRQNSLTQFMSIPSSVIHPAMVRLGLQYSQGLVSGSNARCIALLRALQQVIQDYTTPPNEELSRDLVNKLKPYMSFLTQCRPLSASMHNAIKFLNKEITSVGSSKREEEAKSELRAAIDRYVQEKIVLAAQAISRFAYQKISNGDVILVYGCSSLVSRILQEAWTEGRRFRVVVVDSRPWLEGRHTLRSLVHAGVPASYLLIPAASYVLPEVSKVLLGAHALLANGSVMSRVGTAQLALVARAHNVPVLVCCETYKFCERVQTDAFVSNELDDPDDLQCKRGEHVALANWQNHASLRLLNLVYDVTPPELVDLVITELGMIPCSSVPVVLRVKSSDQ
T4 sequence (Q9NR50 whole entry partner, one chain of several): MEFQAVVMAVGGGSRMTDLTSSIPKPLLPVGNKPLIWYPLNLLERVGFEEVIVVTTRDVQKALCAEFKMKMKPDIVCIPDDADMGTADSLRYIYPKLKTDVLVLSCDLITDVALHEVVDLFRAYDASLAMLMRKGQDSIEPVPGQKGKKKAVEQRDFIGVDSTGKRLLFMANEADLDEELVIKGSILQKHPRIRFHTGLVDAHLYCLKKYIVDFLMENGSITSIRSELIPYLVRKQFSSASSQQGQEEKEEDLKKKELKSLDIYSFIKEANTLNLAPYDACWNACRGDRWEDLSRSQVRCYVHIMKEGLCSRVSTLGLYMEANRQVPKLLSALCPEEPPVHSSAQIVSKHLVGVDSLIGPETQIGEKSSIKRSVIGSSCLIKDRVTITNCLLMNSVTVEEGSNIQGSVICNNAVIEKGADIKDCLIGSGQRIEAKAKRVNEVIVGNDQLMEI
T4 sequence (Q13144 whole entry partner, one chain of several): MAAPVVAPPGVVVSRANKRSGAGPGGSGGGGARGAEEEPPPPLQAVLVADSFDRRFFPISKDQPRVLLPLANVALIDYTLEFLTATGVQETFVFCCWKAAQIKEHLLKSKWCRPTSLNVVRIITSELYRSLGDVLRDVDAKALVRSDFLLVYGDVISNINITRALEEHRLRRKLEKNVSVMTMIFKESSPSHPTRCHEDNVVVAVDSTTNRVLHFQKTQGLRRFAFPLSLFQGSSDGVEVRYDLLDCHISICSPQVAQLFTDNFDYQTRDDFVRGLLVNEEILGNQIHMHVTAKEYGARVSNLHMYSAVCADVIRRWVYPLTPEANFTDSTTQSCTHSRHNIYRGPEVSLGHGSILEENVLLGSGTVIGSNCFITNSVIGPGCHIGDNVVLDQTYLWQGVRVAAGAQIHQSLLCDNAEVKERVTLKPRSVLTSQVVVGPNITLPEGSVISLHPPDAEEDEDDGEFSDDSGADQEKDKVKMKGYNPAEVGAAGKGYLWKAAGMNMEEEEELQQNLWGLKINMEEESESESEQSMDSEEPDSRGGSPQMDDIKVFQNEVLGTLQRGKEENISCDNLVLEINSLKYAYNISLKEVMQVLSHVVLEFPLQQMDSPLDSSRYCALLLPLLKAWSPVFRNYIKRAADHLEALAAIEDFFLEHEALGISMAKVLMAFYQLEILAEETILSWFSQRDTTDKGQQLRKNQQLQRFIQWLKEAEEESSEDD
Protocol: (§2) Purified proteins were thawed and centrifuged at 20,000 × g, 10 min, 4 °C to remove any potential precipitate. Concentrations of eIF2B(βδγε) and eIF2Bα were normalized to 2 μM and 2.4 μM, respectively. 0.2 mL of each mixture was injected onto a Superose 6 Increase 10/300 column connected to an AKTA Pure 25 FPLC system (GE Healthcare). The system was run at 0.5 mL/min for 1 h using 25 mM HEPES, 200 mM KCl, 2 mM MgCl2, 1 mM DTT, pH 7.5 as the mobile phase. For conditions with ISRIB, the protein samples and mobile phase were supplemented with 500 nM ISRIB. For conditions with F6P, the protein samples and mobile phase were supplemented with 200 μM F6P. UV280 measurements were obtained directly by the instrument.

[2] = molecular target: T5, recombinant eIF2B(βδγε) ± eIF2Bα2 (Homo sapiens, UniProt P49770+Q9UI10); test: as above; type: biochemical; settings: SEC, recombinant eIF2B(βδγε); 500 nM ISRIB, 200 μM F6P
T5 construct: made in house; host or cells: eIF2Bα: E. coli BL21(DE3)
T5 sequence (P49770 whole entry): as the sequence (P49770 whole entry, one chain of several) above
T5 sequence (Q9UI10 2-523): as the sequence (Q9UI10 2-523, one chain of several) above
T5 sequence (Q9NR50 whole entry partner): as the sequence (Q9NR50 whole entry partner, one chain of several) above
T5 sequence (Q13144 whole entry partner): as the sequence (Q13144 whole entry partner, one chain of several) above
Protocol: as §2

eIF2Bα^V183F [3] = molecular target: T6, eIF2Bα^V183F (Homo sapiens, UniProt Q14232, V183F); test: Size-exclusion chromatography of recombinant eIF2Bα V183F, alone or with eIF2B(βδγε); type: biochemical; settings: SEC, eIF2Bα V183F alone
T6 construct: made in house; host or cells: E. coli BL21(DE3)
T6 sequence (Q14232 1-305 V183F): T1 sequence (Q14232 1-305) with V183F
Protocol: as §2

eIF2Bα^V183F [4] = molecular target: eIF2Bα^V183F (Homo sapiens, UniProt Q14232, V183F); test: as above; type: biochemical; design: made in house; host or cells: E. coli BL21(DE3); settings: SEC, recombinant eIF2B(βδγε) + eIF2Bα V183F; 200 μM F6P
Protocol: as §2
Target sequence in this assay (Q14232 whole entry V183F): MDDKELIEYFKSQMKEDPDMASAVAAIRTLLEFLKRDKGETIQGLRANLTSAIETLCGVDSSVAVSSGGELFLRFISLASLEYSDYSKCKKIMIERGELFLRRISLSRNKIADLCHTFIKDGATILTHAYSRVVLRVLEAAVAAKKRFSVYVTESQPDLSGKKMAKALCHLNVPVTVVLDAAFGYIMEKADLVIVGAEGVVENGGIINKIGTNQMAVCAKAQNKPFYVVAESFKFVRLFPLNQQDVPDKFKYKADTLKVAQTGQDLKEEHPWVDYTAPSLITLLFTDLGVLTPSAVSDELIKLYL
Target sequence in this assay (P49770 whole entry partner): as the sequence (P49770 whole entry, one chain of several) above
Target sequence in this assay (Q9UI10 whole entry partner): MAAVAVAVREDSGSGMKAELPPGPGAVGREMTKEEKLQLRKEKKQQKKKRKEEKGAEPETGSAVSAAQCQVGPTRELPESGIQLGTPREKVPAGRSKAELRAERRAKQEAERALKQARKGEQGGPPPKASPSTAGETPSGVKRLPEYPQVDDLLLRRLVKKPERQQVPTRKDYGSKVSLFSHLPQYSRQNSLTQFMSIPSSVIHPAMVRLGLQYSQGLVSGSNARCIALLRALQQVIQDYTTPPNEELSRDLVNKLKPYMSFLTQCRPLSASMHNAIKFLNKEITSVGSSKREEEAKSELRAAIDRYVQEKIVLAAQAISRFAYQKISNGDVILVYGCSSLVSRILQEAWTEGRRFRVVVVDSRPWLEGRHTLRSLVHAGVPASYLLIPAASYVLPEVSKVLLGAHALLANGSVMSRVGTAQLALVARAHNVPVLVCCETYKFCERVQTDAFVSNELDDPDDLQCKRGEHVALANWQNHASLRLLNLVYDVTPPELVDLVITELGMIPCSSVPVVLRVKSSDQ
Target sequence in this assay (Q9NR50 whole entry partner): as the sequence (Q9NR50 whole entry partner, one chain of several) above
Target sequence in this assay (Q13144 whole entry partner): as the sequence (Q13144 whole entry partner, one chain of several) above

With `O=C(CO)[C@@H](O)[C@H](O)[C@H](O)COP(=O)(O)O` [F6P, fructose-6-phosphate] the Kd (eIF2Bα; ITC, wild-type eIF2Bα) was 9.4 ± 2.3 µM, the “ITC binding isotherm, heat per mole of injectant” value (eIF2Bα; molar ratio 0.037369) was -7.609 kcal/mol and the “ITC binding isotherm, heat per mole of injectant” value (eIF2Bα; molar ratio 0.225339) was -7.342 kcal/mol. The “ITC binding isotherm, heat per mole of injectant” value (eIF2Bα; molar ratio 0.415168) was -6.77 kcal/mol, the “ITC binding isotherm, heat per mole of injectant” value (eIF2Bα; molar ratio 0.606855) was -6.002 kcal/mol and the “ITC binding isotherm, heat per mole of injectant” value (eIF2Bα; molar ratio 0.8004) was -5.049 kcal/mol. The “ITC binding isotherm, heat per mole of injectant” value (eIF2Bα; molar ratio 0.995804) was -4.011 kcal/mol, the “ITC binding isotherm, heat per mole of injectant” value (eIF2Bα; molar ratio 1.19307) was -3.038 kcal/mol and the “ITC binding isotherm, heat per mole of injectant” value (eIF2Bα; molar ratio 1.39219) was -2.241 kcal/mol. The “ITC binding isotherm, heat per mole of injectant” value (eIF2Bα; molar ratio 1.59317) was -1.647 kcal/mol, the “ITC binding isotherm, heat per mole of injectant” value (eIF2Bα; molar ratio 1.796) was -1.223 kcal/mol and the “ITC binding isotherm, heat per mole of injectant” value (eIF2Bα; molar ratio 2.0007) was -0.9255 kcal/mol. The “ITC binding isotherm, heat per mole of injectant” value (eIF2Bα; molar ratio 2.20725) was -0.7147 kcal/mol, the “ITC binding isotherm, heat per mole of injectant” value (eIF2Bα; molar ratio 2.41567) was -0.5629 kcal/mol and the “ITC binding isotherm, heat per mole of injectant” value (eIF2Bα; molar ratio 2.62594) was -0.4515 kcal/mol. For the same molecule, the “ITC binding isotherm, heat per mole of injectant” value (eIF2Bα; molar ratio 2.83807) was -0.3681 kcal/mol, the “ITC binding isotherm, heat per mole of injectant” value (eIF2Bα; molar ratio 3.05206) was -0.3043 kcal/mol and the “ITC binding isotherm, heat per mole of injectant” value (eIF2Bα; molar ratio 3.2679) was -0.2547 kcal/mol. The “ITC binding isotherm, heat per mole of injectant” value (eIF2Bα; molar ratio 3.48561) was -0.2155 kcal/mol, the “ITC binding isotherm, heat per mole of injectant” value (eIF2Bα; molar ratio 3.70517) was -0.184 kcal/mol and the Kd (eIF2Bα^E198K; eIF2Bα E198K) was 99 ± 12 µM. For the same molecule, the “reduction of affinity of eIF2Bα E198K” value (eIF2Bα^E198K; compared with wild-type eIF2Bα) was 11 fold, the “interaction with eIF2Bα N208Y” value (eIF2Bα^N208Y) was “does not interact; also recorded: abrogates binding” and the “complex formation in the presence of eIF2Bα” value [1] was “enhances eIF2B complex stability”. The “complex formation in the absence of eIF2Bα” value [2] was “ineffective at promoting complex formation”, the “monomer-to-dimer shift of eIF2Bα V183F” value (eIF2Bα^V183F [3]) was “induced a partial shift from the monomer to the dimer peak” and the “eIF2Bα V183F monomer peak” value (eIF2Bα^V183F [4]) was “significant reduction of the eIF2Bα^V183F monomer peak”.
